Laboratory results published in ChEMBL document CHEMBL1201862, “PubChem BioAssay data set” (2004).
Calls of active or inactive are those of the source.

Tests used:
H9c2 = experiment: cells; assay type: functional, cell-based; conditions: Rattus norvegicus, H9c2, Myocardium;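 also: confirmatory concentration-response retest of ultra-high-throughput screening hits for modulation of myocardial damage; cell death induced by hydrogen peroxide oxidative stress; compound pretreatment for 60 min then peroxide exposure for 2 h; potency is for protecting the cells against peroxide damage rather than for killing them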
[1] = target: T1, Carboxy-terminal domain RNA polymerase II polypeptide A small phosphatase 1 (Homo sapiens, UniProt Q9GZU7); experiment: inhibitors of CTDSP1, concentration-response testing, biochemical assay, absorbance-based, actives from ultra-high-throughput screening (AID 540297); assay type: functional
T1 sequence (Q9GZU7 whole entry): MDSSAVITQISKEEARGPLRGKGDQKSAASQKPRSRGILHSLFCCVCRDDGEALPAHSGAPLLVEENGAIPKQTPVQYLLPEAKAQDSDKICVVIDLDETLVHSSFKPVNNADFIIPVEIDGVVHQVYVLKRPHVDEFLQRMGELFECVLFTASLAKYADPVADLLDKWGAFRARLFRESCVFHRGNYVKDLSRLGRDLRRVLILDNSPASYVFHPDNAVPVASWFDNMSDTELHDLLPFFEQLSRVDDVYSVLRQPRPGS

[2] = target: T2, DNA repair protein RAD52 homolog (Homo sapiens, UniProt P43351); assay type: functional, biochemical
T2 sequence (P43351 whole entry): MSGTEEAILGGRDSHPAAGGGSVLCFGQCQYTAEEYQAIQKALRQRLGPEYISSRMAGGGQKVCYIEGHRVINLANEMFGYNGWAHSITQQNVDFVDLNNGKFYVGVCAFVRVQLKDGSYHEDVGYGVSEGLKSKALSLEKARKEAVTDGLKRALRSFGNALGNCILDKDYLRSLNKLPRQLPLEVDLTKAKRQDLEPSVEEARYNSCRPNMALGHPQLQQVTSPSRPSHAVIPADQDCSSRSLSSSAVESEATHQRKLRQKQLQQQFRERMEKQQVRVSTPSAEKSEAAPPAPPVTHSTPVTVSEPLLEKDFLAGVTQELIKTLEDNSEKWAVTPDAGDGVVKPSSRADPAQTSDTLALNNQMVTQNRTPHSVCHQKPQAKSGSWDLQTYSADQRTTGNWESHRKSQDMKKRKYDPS

[3] = target: T3, Ubiquitin-conjugating enzyme E2 N (Homo sapiens, UniProt P61088); assay type: functional;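 also: Dose-response confirmation in a TR-FRET assay detecting UBC13-driven polyubiquitin chain formation, inhibition measured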
T3 sequence (P61088 whole entry): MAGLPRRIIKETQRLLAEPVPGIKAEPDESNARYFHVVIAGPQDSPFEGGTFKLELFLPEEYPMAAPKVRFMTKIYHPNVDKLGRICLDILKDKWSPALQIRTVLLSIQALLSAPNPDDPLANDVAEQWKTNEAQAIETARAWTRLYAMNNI

[4] = target: T4, Heat shock factor protein 1 (Mus musculus, UniProt P38532); experiment: HSF1 potentiators in luciferase reporter cells, confirmation, cell-based, NIH3T3, luminescence, dose retest (AID 435004); assay type: functional;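 also: stress induced by proteasome inhibitor MG132 added 30 min after compound; luciferase reporter driven by HSF1 response element in NIH3T3 cells; actives raise luminescence as potentiators of the MG132 stress response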
T4 sequence (P38532 whole entry): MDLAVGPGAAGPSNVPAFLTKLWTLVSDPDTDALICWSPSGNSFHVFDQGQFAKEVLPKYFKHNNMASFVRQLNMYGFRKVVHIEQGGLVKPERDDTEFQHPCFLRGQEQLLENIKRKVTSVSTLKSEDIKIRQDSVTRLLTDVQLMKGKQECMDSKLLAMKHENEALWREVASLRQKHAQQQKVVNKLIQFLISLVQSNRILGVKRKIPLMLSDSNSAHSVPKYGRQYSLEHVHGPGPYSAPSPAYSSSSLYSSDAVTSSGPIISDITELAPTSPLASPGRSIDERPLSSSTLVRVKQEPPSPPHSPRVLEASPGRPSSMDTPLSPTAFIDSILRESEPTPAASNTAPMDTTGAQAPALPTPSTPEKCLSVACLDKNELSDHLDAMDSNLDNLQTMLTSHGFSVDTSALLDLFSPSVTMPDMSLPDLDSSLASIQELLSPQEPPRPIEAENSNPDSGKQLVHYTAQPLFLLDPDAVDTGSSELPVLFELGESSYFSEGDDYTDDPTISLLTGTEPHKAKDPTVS

[5] = target: T5, Calpain-2 catalytic subunit (Sus scrofa, UniProt P43367); experiment: pig calpain II inhibitor potency, dose response, biochemical, fluorogenic peptide substrate (AID 1420); assay type: functional
T5 sequence (P43367 whole entry): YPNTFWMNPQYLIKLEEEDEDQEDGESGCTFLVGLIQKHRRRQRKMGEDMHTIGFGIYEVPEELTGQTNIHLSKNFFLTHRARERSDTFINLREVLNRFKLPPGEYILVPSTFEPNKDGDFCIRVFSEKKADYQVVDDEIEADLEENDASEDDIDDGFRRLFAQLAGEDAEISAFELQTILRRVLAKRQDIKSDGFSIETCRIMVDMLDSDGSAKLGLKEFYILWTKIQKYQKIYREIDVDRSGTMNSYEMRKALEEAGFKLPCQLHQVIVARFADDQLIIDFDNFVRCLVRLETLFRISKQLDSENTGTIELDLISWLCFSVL

[6] = target: T6, Short transient receptor potential channel 4 (Mus musculus, UniProt Q9QUQ5); experiment: mouse TRPC4 channel activators, dose response, cell-based, HEK293 TRPC4/mu-opioid, Fluo-4 calcium (AID 434937); assay type: functional
T6 sequence (Q9QUQ5 whole entry): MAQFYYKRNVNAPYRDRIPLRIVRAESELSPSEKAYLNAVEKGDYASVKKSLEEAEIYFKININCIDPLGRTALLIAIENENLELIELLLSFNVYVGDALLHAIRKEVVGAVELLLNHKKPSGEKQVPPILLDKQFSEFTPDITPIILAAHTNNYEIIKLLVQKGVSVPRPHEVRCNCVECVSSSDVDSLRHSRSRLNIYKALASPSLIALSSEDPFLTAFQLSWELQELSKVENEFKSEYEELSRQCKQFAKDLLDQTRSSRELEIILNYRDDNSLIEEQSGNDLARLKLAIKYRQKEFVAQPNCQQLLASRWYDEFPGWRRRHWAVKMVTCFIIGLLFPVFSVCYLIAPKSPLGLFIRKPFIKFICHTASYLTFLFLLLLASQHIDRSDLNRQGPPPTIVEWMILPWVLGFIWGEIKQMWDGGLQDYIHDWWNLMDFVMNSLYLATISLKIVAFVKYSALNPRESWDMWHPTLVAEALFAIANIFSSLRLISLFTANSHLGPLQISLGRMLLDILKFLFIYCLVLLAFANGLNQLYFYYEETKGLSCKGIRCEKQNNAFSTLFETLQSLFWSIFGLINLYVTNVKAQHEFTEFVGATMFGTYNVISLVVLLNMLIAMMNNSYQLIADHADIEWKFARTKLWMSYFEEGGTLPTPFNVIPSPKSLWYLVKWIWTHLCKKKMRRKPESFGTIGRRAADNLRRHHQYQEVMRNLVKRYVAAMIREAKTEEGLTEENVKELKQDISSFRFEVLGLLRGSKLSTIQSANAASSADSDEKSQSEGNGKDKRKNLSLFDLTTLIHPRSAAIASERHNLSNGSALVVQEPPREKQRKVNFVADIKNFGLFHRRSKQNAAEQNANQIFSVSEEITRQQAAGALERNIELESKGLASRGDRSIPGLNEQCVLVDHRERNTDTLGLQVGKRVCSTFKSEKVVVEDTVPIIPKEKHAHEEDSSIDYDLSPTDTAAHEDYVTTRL

Paired box protein Pax-8 = Paired box protein Pax-8 (Homo sapiens, UniProt Q06710); experiment: inhibitors of PAX8-driven TPO luciferase reporter, dose response, RMG-I cells, cherry-pick (AID 687027); assay type: functional, cell-based;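 also: luciferase reporter driven by Pax8 target thyroperoxidase promoter measured by SteadyGlo luminescence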
Sequence of Paired box protein Pax-8 (Q06710 whole entry): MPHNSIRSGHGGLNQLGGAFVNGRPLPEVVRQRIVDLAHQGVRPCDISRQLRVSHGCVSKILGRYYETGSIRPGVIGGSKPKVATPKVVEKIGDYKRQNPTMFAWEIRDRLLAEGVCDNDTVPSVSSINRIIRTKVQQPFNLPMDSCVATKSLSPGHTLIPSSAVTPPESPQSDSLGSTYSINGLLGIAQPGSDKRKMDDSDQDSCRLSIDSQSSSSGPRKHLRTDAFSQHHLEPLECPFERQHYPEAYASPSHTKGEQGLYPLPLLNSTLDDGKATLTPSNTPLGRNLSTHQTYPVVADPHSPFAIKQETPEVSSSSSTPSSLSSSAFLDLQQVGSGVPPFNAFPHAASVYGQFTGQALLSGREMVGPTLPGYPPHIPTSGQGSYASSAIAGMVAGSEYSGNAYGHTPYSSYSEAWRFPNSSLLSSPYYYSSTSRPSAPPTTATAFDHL

[7] = cytotoxicity in OVCAR8 ovarian cancer cells, dose response, PAX8 project, cell-based, plate reader, dry powder samples (AID 743197); assay type: functional; conditions: OVCAR-8

For `Cc1ccc(S(=O)(=O)N2CCN(C(=O)c3cc(O)nc4ccccc34)CC2)c(C)c1`, the IC50 (H9c2) was > 79 µM (inactive).

For `Cc1ccc(-n2nc(-c3ccco3)cc2C(=O)O)cc1`, the IC50 [1] was 3.82 µM (active).

In the case of `CC[C@H](C)Cc1cn([C@@H](CCCCN)C(=O)NCCCCCCCCCCC(=O)N2CCNCC2)nn1`, the AC50 [2] is reported as 13.2 µM (active) and the IC50 [3] is reported as > 20 µM (inactive).

For `CC1=C(/C=C/C(=O)O)C(C)(C)CCC1`, the EC50 [4] was > 260 µM (inactive).

In the case of `CCOC(=O)NC(C(F)(F)F)(C(F)(F)F)P(=O)(c1ccccc1)c1ccccc1`, the IC50 [5] is reported as > 50 µM (not active).

For `O=C(Nc1cccc(Cl)c1)N1CCC(CO)(CCOc2ccccc2)CC1`, the EC50 [4] was 45 µM (active).

In the case of `COc1ccc(CCN2C(=O)C3C(C2=O)C2C=CC3C23CC3)cc1OC` (centres undefined), the EC50 [4] is reported as > 260 µM (inactive).

With `CC(=O)N(CCN(C)C)c1nc2cc3c(cc2s1)OCCO3` the AC50 [2] was 11.4 µM (active).

With `CCCCCc1c(O)nc(SCCN(C)C)nc1O` the EC50 [6] was 4.22 µM (active).

In the case of `COCCN1CCN(c2c3c(nc4cc(-c5cccc(F)c5)nn24)CCC3)CC1`, the IC50 (H9c2) is reported as 6.93 µM (active).

In the case of `COc1ccc(-c2cc3nc(NCCCN(C)C)n(C)c(=O)c3s2)c(C)c1`, the AC50 [2] is reported as 29.3 µM (active).

For `NC(=O)c1cc2ccccc2o/c1=N\NC(=O)c1ccc(F)cc1`, the IC50 (H9c2) was > 79 µM (inactive).

In the case of `Cc1sc2nc(C)n(/N=C/c3ccc(O)cc3O)c(=O)c2c1C`, the EC50 [4] is reported as > 260 µM (inactive).

In the case of `Cc1ccc(S(=O)(=O)Nc2ccc3c(c2)C(=O)N([C@@H](C)CO)C[C@H](C)[C@H](CN(C)Cc2ccc(C(F)(F)F)cc2)OCCCC[C@@H](C)O3)cc1`, the AC50 (Paired box protein Pax-8) is reported as 7.03 µM (active) and the AC50 [7] is reported as > 70 µM (inactive).

For `COc1ccc(/C=N/NC(=O)C2COc3ccccc3O2)cc1OC` (centres undefined), the EC50 [6] was 0.841 µM (active).

For `O=C(Oc1ccc(/C=N/NC(=O)c2ccccc2O)cc1)c1ccccc1`, the IC50 [1] was 8.03 µM (active).

In the case of `COc1cc(/C=C2/SC(=S)N(CCC(=O)Nc3ccc(C(=O)O)cc3)C2=O)cc(OC)c1OC`, the IC50 [1] is reported as 6.91 µM (active).
